Experiments:
[1] = Retention time of the compound by supercritical fluid chromatography; type: ADME
[2] = molecular target: T1, Peroxisome proliferator-activated receptor gamma (Homo sapiens, UniProt P37231); experiment: Agonist activity at PPARgamma ligand binding domain (unknown origin) using fluormone Pan-PPAR green tracer by TR-FRET assay based competitive ligand binding method
T1 sequence (P37231 whole entry): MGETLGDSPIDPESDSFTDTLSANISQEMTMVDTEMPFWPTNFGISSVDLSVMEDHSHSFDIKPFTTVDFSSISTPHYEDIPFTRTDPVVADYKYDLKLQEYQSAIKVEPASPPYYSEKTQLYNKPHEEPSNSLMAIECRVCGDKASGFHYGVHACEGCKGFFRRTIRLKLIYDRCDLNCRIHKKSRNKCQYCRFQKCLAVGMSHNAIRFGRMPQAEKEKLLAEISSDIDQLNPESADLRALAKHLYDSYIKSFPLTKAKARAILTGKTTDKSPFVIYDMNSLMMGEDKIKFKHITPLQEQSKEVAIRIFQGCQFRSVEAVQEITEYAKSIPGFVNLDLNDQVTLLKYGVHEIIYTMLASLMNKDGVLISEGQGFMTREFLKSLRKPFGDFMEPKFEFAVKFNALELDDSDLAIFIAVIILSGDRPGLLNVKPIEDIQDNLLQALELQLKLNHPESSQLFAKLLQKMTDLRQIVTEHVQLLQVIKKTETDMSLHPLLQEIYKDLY

SMILES	Retention_time [1] [min]	IC50 [2] [nM]	Ki [2] [nM]
COc1cc2c(cc1CC=C(C)C)C(=O)C[C@@H](c1ccc(O)cc1)O2 [BAVACHININ A]	4.4	617	221
COc1cc2oc(-c3ccc(O)cc3)cc(=O)c2cc1CC=C(C)C [BAVACHININ]		489	176
COc1cc2c(cc1CC=C(C)C)C(=O)C[C@H](c1ccc(O)cc1)O2	4.99	471	169

From ChEMBL document CHEMBL3425507, “Separation and peroxisome proliferator-activated receptor-γ agonist activity evaluation of synthetic racemic bavachinin enantiomers” (Bioorg Med Chem Lett, 2015)
